From US9867857B2, “Acetobacter and gluconacetobacter strains and their metabolites for use in inhibiting xanthine oxidase” (Food Industry Research And Development Institute, priority 2014, dated 2018)

System: ICR mice
Assay: Experimental uricemia: potassium oxonate-induced high serum uric acid
Assay type: in vivo
Details: potassium oxonate 400 mg/kg + allopurinol 10 mg/kg fed, 1 h after dosing
Procedure: Acetobacter pasteurianus strain AHU01 was inoculated onto an M1A plate and cultured for 2 days at 30° C. The plate was washed with 7 ml of sterile water as seed broth. 0.5 ml of the seed broth was inoculated into 50 ml of a custom media (1% soy peptone, 0.2% yeast extract, 3% glucose, 0.2% malt extract, and 3% fructose) in a 250 ml triangular flask and incubated with shaking at 150 rpm for 7 days at 30° C. The medium was then collected and centrifuged at 3000 rpm for 15 minutes. Following centrifugation, the supernatant was collected, lyophilized, and freeze-dried to form a solid fermentation product for use in animal experiments.
ICR mice were used as experimental animals. Potassium oxonate, a uricase inhibitor, was used to induce a high level of uric acid in the serum of the mice. Mice were fasted for one hour and then fed saline or potassium oxonate (400 mg/kg) via a feeding tube. After one hour, potassium oxonate-treated mice were fed saline, allopurinol (10 mg/kg), or the Acetobacter pasteurianus strain AHU01 fermentation product (150 mg or 200 mg resuspended in saline per mouse) prepared as described above. Ten animals were used for each experimental group and for the control group. The animals were sacrificed after one hour and the level of uric acid in their serum was analyzed.

Oc1ncnc2[nH]ncc12 [allopurinol]
serum uric acid concentration: 2.82 ± 0.28 mg/dL
